Reference: patent US6355799B1, “Substituted benzene compounds, process for their preparation, and herbicidal and defoliant compositions containing them” (ISK Americas Incorporated, priority 1997, dated 2002)

How the values were obtained:
Type in all cases: in vivo
[1] = system: redroot pigweed (Amaranthus retroflexus, AMARE); experiment: Pre-emerge test, greenhouse herbicide activity screening; conditions: pre-emerge, 14 days after application, scale 0-100
Procedure, shortened: (§1)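 Plants grown in 10 cm pots of sandy loam mix received acetone-dissolved compounds through a moving flat-fan nozzle. Doses ranged from 15 to 1000 g ai/ha. Pre-emerge pots were seeded one day earlier, post-emerge pots 8–21 days earlier. Fourteen days on, each pot was graded 0–100 for damage.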

[2] = system: barnyardgrass (Echinochloa crus-galli, ECHCG); experiment: as above; conditions: pre-emerge, 14 days after application, scale 0-100
Procedure, shortened: (§2)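 Rating: 0–100 visual injury, 14 DAA. Application: acetone, 187 l/ha, 15–1000 g ai/ha, flat-fan track sprayer with nozzle 40–45 cm above soil or canopy. Post-emerge runs used 0.25% v/v surfactant on 2–3 leaf plants.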

[3] = system: common ragweed (Ambrosia artemisizfolia L., AMBEL); experiment: as above; conditions: pre-emerge, 14 days after application, scale 0-100
Procedure, shortened: as §2

[4] = system: green foxtail (Setaria viridis, SETVI); experiment: as above; conditions: pre-emerge, 14 days after application, scale 0-100
Procedure, shortened: as §2

[5] = system: ivyleaf morningglory (Ipomoea hederacea, IPOHE); experiment: as above; conditions: pre-emerge, 14 days after application, scale 0-100
Procedure, shortened: as §2

[6] = system: johnsongrass (Sorghum halepense, SORHA); experiment: as above; conditions: pre-emerge, 14 days after application, scale 0-100
Procedure, shortened: as §2

[7] = system: lambsquarters (Chenopodium album, CHEAL); experiment: as above; conditions: pre-emerge, 14 days after application, scale 0-100
Procedure, shortened: as §2

[8] = system: large crabgrass (Digitaria sanguinalis, DIGSA); experiment: as above; conditions: pre-emerge, 14 days after application, scale 0-100
Procedure, shortened: as §2

[9] = system: sicklepod (Cassia obtusifolia, CASOB); experiment: as above; conditions: pre-emerge, 14 days after application, scale 0-100
Procedure, shortened: as §2

[10] = system: velvetleaf (Abutilon theophrasti, ABUTH); experiment: as above; conditions: pre-emerge, 14 days after application, scale 0-100
Procedure, shortened: as §2

[11] = system: field corn (Zea mays L., var. Dekalb 535, CORN); experiment: Pre-emerge test, crop safety; conditions: pre-emerge, 14 days after application, scale 0-100
Procedure, shortened: (§3)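 Sandy loam pots; pre-emerge: sown 1 d pre-spray, surface-watered after, then bottom-watered. Post-emerge: sown 8–21 d before, 2–3 leaf stage, + 0.25% v/v NIS, bottom-watered. Acetone, 187 l/ha track spray, 15–1000 g ai/ha. 0–100 injury score, day 14.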

[12] = system: upland rice (Oryza sp., var. Tebonnet, RICE); experiment: Pre-emerge test, crop safety; conditions: pre-emerge, 14 days after application, scale 0-100
Procedure, shortened: as §3

[13] = system: barnyardgrass (Echinochloa crus-galli, ECHCG); experiment: Post-emerge test, greenhouse herbicide activity screening; conditions: post-emerge, 14 days after application, rating scale 0-100
Procedure, shortened: (§4)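 Applied at 15–1000 g ai/ha from acetone in 187 l/ha spray volume. Post-emergence applications included 0.25% v/v non-ionic surfactant and reached plants sown 8–21 days before. Pre-emergence applications were incorporated by surface watering. Efficacy or crop damage was rated on a 0–100 scale after 14 days.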

[14] = system: common ragweed (Ambrosia artemisizfolia L., AMBEL); experiment: as above; conditions: post-emerge, 14 days after application, rating scale 0-100
Procedure, shortened: as §4

[15] = system: green foxtail (Setaria viridis, SETVI); experiment: as above; conditions: post-emerge, 14 days after application, rating scale 0-100
Procedure, shortened: as §4

[16] = system: ivyleaf morningglory (Ipomoea hederacea, IPOHE); experiment: as above; conditions: post-emerge, 14 days after application, rating scale 0-100
Procedure, shortened: as §4

[17] = system: lambsquarters (Chenopodium album, CHEAL); experiment: as above; conditions: post-emerge, 14 days after application, rating scale 0-100
Procedure, shortened: as §4

[18] = system: large crabgrass (Digitaria sanguinalis, DIGSA); experiment: as above; conditions: post-emerge, 14 days after application, rating scale 0-100
Procedure, shortened: as §4

[19] = system: redroot pigweed (Amaranthus retroflexus, AMARE); experiment: as above; conditions: post-emerge, 14 days after application, rating scale 0-100
Procedure, shortened: as §4

[20] = system: sicklepod (Cassia obtusifolia, CASOB); experiment: as above; conditions: post-emerge, 14 days after application, rating scale 0-100
Procedure, shortened: as §4

[21] = system: velvetleaf (Abutilon theophrasti, ABUTH); experiment: as above; conditions: post-emerge, 14 days after application, rating scale 0-100
Procedure, shortened: as §4

[22] = system: field corn (Zea mays L., var. Dekalb 535, CORN); experiment: Post-emerge test, crop safety; conditions: post-emerge, 14 days after application, rating scale 0-100
Procedure, shortened: as §1

[23] = system: upland rice (Oryza sp., var. Tebonnet, RICE); experiment: Post-emerge test, crop safety; conditions: post-emerge, 14 days after application, rating scale 0-100
Procedure, shortened: as §1

Cn1c(C(F)(F)F)cc(=O)n(-c2c(F)cc(Cl)cc2NC2CC2)c1=O [2-147]
phytotoxicity rating AMARE ([1]; 63 g ai/ha): 100 | phytotoxicity rating AMARE ([1]; 250 g ai/ha): 100 | phytotoxicity rating ECHCG ([2]; 63 g ai/ha): 90 | phytotoxicity rating ECHCG ([2]; 250 g ai/ha): 100 | phytotoxicity rating AMBEL ([3]; 63 g ai/ha): 80 | phytotoxicity rating AMBEL ([3]; 250 g ai/ha): 100 | phytotoxicity rating SETVI ([4]; 63 g ai/ha): 100 | phytotoxicity rating SETVI ([4]; 250 g ai/ha): 100 | phytotoxicity rating IPOHE ([5]; 63 g ai/ha): 80 | phytotoxicity rating IPOHE ([5]; 250 g ai/ha): 100 | phytotoxicity rating SORHA ([6]; 63 g ai/ha): 90 | phytotoxicity rating SORHA ([6]; 250 g ai/ha): 100 | phytotoxicity rating CHEAL ([7]; 63 g ai/ha): 100 | phytotoxicity rating CHEAL ([7]; 250 g ai/ha): 100 | phytotoxicity rating DIGSA ([8]; 63 g ai/ha): 90 | phytotoxicity rating DIGSA ([8]; 250 g ai/ha): 100 | phytotoxicity rating CASOB ([9]; 63 g ai/ha): 40 | phytotoxicity rating CASOB ([9]; 250 g ai/ha): 100 | phytotoxicity rating ABUTH ([10]; 63 g ai/ha): 100 | phytotoxicity rating ABUTH ([10]; 250 g ai/ha): 100 | phytotoxicity rating CORN (crop damage) ([11]; 63 g ai/ha): 100 | phytotoxicity rating CORN (crop damage) ([11]; 250 g ai/ha): 100 | phytotoxicity rating RICE (crop damage) ([12]; 63 g ai/ha): 99 | phytotoxicity rating RICE (crop damage) ([12]; 250 g ai/ha): 100 | ECHCG phytotoxicity rating ([13]; 63 g ai/ha): 10 | ECHCG phytotoxicity rating ([13]; 250 g ai/ha): 50 | AMBEL phytotoxicity rating ([14]; 63 g ai/ha): 95 | AMBEL phytotoxicity rating ([14]; 250 g ai/ha): 100 | SETVI phytotoxicity rating ([15]; 63 g ai/ha): 20 | SETVI phytotoxicity rating ([15]; 250 g ai/ha): 40 | IPOHE phytotoxicity rating ([16]; 63 g ai/ha): 100 | IPOHE phytotoxicity rating ([16]; 250 g ai/ha): 100 | CHEAL phytotoxicity rating ([17]; 63 g ai/ha): 100 | CHEAL phytotoxicity rating ([17]; 250 g ai/ha): 100 | DIGSA phytotoxicity rating ([18]; 63 g ai/ha): 20 | DIGSA phytotoxicity rating ([18]; 250 g ai/ha): 50 | AMARE phytotoxicity rating ([19]; 63 g ai/ha): 100 | AMARE phytotoxicity rating ([19]; 250 g ai/ha): 100 | CASOB phytotoxicity rating ([20]; 63 g ai/ha): 80 | CASOB phytotoxicity rating ([20]; 250 g ai/ha): 95 | ABUTH phytotoxicity rating ([21]; 63 g ai/ha): 100 | ABUTH phytotoxicity rating ([21]; 250 g ai/ha): 100 | CORN phytotoxicity rating (crop damage) ([22]; 63 g ai/ha): 15 | CORN phytotoxicity rating (crop damage) ([22]; 250 g ai/ha): 90 | RICE phytotoxicity rating (crop damage) ([23]; 63 g ai/ha): 50 | RICE phytotoxicity rating (crop damage) ([23]; 250 g ai/ha): 75
